Reference: patent US20060234910A1, “Methods for the treatment of insulin resistance and disease states characterized by insulin resistance” (priority 2005, published 2006)

Key:
TR3 gene expression = assay: Quantitative real-time PCR of TR3 gene expression in 3T3-L1 adipocytes; type: cell-based; conditions: for insulin-stimulated TR3 gene expression: 1 hour
Method: (§1) FIGS. 3A-3C show the effect of insulin stimulation on MINOR and TR3 gene expression in 3T3-L1 adipocytes. FIGS. 3A and 3B show insulin induces the expression of MINOR and TR3 gene expression in 3T3-L1 adipocytes. Fully differentiated 3T3-L1 adipocytes were treated with 100 nM of insulin for up to 8 hours (treated) or 0 nM insulin (0 hour control). The control and treated adipocytes were lysed and the mRNAs were extracted for cDNA synthesis. Quantitative real-time PCR was used to measure expression of MINOR (FIG. 3A) and TR3 (FIG. 3B) genes. Results represent the mean±SE from three separate experiments. […] Fully differentiated 3T3-L1 adipocytes were treated with 100 nM of insulin alone (control) or plus LY294002 (PI 3-kinase inhibitor), SB203580 (p38 MAP kinase inhibitor), Ro318220 (protein kinase C inhibitor) for one hour. The control and treated adipocytes were lysed and the mRNAs were extracted for cDNAs synthesis. A quantitative real-time PCR was performed for detecting the expression levels of MINOR and TR3 genes. Results represent the mean±SE from three separate experiments.
(§2) Fully differentiated 3T3-L1 adipocytes were treated with 10 uM of the indicated thiazolidinedione (troglitazone or pioglizatone) from 0 to 48 hours. Control cells received vehicle alone. The control and treated adipocytes were lysed and the mRNAs were extracted for cDNA synthesis. Quantitative real-time PCR was used to measure expression levels of MINOR (FIGS. 4A and 4B) and TR3 (FIGS. 4C and 4D) genes. Results represent the mean±SE from three separate experiments.
(§3) Fully differentiated 3T3-L1 adipocytes were treated with 100 nM of insulin for various times (0 to 8 hours; the 0 hour time point served as the control and received no added insulin). The control and treated adipocytes were lysed and the mRNAs were extracted for cDNAs synthesis. A quantitative real-time PCR was performed for detecting the expression levels of MINOR and TR3 genes. […] Insulin also stimulated TR3 gene expression adipocytes, but with a different temporal response with TR3 expression levels returning to baseline by hour 2 after treatment (FIG. 3B).
(§4) The stimulatory effect of insulin on MINOR and TR3 gene expression was dependent on signal transduction via the PI-3-kinase pathway, the p38 MAP-K pathway and the protein kinase C (PKC) pathway. […] A quantitative real-time PCR was performed for detecting the expression levels of MINOR and TR3 genes. […]
(§5) Fully differentiated 3T3-L1 adipocytes were treated with 10 uM of the indicated thiazolidinedione (troglitazone or pioglizatone) from 0 to 48 hours. […] Quantitative real-time PCR was used to measure expression levels of MINOR (FIGS. 4A and 4B) and TR3 (FIGS. 4C and 4D) genes. […]

MINOR gene expression = assay: Quantitative real-time PCR of MINOR gene expression in 3T3-L1 adipocytes; type: cell-based; conditions: for insulin-stimulated MINOR gene expression: 1 hour
Method: as §1, §2, §3, §4, §5

[1] = system: MINOR gene expression in skeletal muscle; assay: cDNA microarray of skeletal muscle biopsies, basal vs hyperinsulinemia (MINOR); type: in vivo, human; conditions: insulin stimulation, three hours of hyperinsulinemia vs basal
Source text: (§6) The primary target tissues for insulin action are skeletal muscle, adipose tissue, and the liver tissue. Skeletal muscle is the predominant target tissue for insulin-mediated glucose uptake (responsible for approximately 95% of glucose uptake), and is a critical locus of insulin resistance. Defects in glucose uptake in skeletal muscle is a predominate contributor to the clinical manifestations of insulin resistance. The molecular basis for insulin resistance is not well understood, but appears to involve defects in insulin signal transduction and abnormal cellular trafficking of glucose transporter proteins (5). To better understand the molecular defects responsible for human insulin resistance, skeletal muscle biopsies were obtained from volunteers in three metabolically-defined subgroups: A) insulin sensitive: (B) insulin resistant; and (C) type 2 diabetic. Biopsies from each subgroup were obtained under both basal conditions and after three hours of hyperinsulinemia. Differential gene expression in these muscle biopsies was assessed using cDNA microarray technology utilizing the Affymetrix Hu95A gene expression chips (carried out as per manufacturer's instructions). The effect of insulin on gene expression in human muscle has not been extensively studied, and most prior studies focused on single genes or small numbers of genes with a limited focus (6-8). […]

Nurr1 gene expression = Nurr1 gene expression in 3T3-L1 adipocytes; type: cell-based; conditions: fully differentiated 3T3-L1 adipocytes, 100 nM insulin; data not shown
[2] = system: GLUT4 glucose transporters at plasma membrane; assay: Plasma membrane lawn assay of GLUT4 in adipocytes; type: cell-based; conditions: control (LacZ transfected) adipocytes, 100 nM insulin, 30 min vs basal
Method: FIGS. 6A-6D show the effect of MINOR gene expression on insulin-mediated recruitment of GLUT4 glucose transporters to plasma membrane. MINOR gene transduced 3T3-L1 fibroblasts and control LacZ transduced fibroblasts were grown on glass cover slips and differentiated into adipocytes. Adipocytes were then stimulated for 30 min with (insulin-stimulated) or without (basal) 100 nM of insulin. The adipocytes were then washed, and disrupted by sonication leaving and plasma membrane sheets attached to cover slips (plasma membrane lawn assay) (26). Plasma membrane associated GLUT4 was detected using a polyclonal anti-GLUT4 antibody and a FITC-conjugated secondary antibody. (A) basal LacZ expressing adipocytes; (B) insulin-stimulated LacZ expressing adipocytes; (C) basal Minor expressing adipocytes; (D) insulin-stimulated Minor expressing adipocytes.
These experiments use the “plasma membrane lawn” technique (26) to quantify the relative amounts of GLUT4 glucose transporter proteins in the cell surface plasma membrane. MINOR gene transduced 3T3-L1 fibroblasts and control LacZ transduced fibroblasts were grown on glass cover slips and differentiated into adipocytes. […] Plasma membrane associated GLUT4 was detected using a polyclonal anti-GLUT4 antibody and a FITC-conjugated secondary antibody.

[3] = system: TR3 gene expression in skeletal muscle; assay: cDNA microarray of skeletal muscle biopsies, basal vs hyperinsulinemia (TR3); type: in vivo, human; conditions: insulin stimulation, three hours of hyperinsulinemia vs basal
Source text: as §6

[4] = 3T3-L1 adipocytes, 100 nM insulin plus inhibitor 10 nM
[5] = 3T3-L1 adipocytes, 100 nM insulin
[6] = fully differentiated 3T3-L1 adipocytes, 100 nM insulin, 0 to 8 hours
[7] = 3T3-L1 adipocytes, 100 nM insulin plus inhibitor 50 nM

C[S+]([O-])c1ccc(-c2nc(-c3ccncc3)c(-c3ccc(F)cc3)[nH]2)cc1 (stereo not drawn) [SB203580, reference compound]
insulin-stimulated TR3 gene expression (TR3 gene expression; [4]): decreased the ability of insulin to stimulate | insulin-stimulated MINOR gene expression (MINOR gene expression; [4]): decreased the ability of insulin to stimulate

insulin
time at which TR3 expression levels return to baseline after treatment (TR3 gene expression; [5]): ≤ 2 h | TR3 gene expression (TR3 gene expression; [6]): stimulated | period over which the increase in MINOR gene expression is sustained (MINOR gene expression; [5]): 4 h | MINOR gene expression (MINOR gene expression; [6]): stimulated | MINOR gene expression in human skeletal muscles (microarray) [1]: strongly induced | Nurr1 gene expression (Nurr1 gene expression): not stimulated | plasma membrane associated GLUT4 [2]: increased GLUT4 staining in the plasma membrane | TR3 gene expression in human skeletal muscles (microarray) [3]: strongly induced

Cn1cc(C2=C(c3cn(CCCSC(=N)N)c4ccccc34)C(=O)NC2=O)c2ccccc21 [Ro318220, reference compound]
insulin-stimulated TR3 gene expression (TR3 gene expression; [7]): decreased the ability of insulin to stimulate | insulin-stimulated MINOR gene expression (MINOR gene expression; [7]): decreased the ability of insulin to stimulate
